Laboratory results: patent publication US10667515B2, “(S)-5-ethynyl-anabasine, derivatives thereof, and related compositions and methods of making and using” (priority 2016, dated 2020)
Entries after “also recorded” stand apart in the source; their conditions may differ. Structures can show the parent of a compound that is named as a salt. Where two headings read alike, the source gives them in different places.

How the values were obtained:
Asu-ACR-16 [1] = target: T1, Asu-ACR-16 (Ascaris suum (Pig roundworm) (Ascaris lumbricoides), UniProt F1KYJ9); assay: cell-based; assay type: cell-based; details: for Emax: read-out: maximum response (Imax); for maximum response (Imax): normalized to peak current of 100 μM ACh
Experimental: Full-length Asu-acr-16 cRNA and ancillary gene Asu-ric-3 cRNA (UniProtKB Accession No. F1L1D9) were prepared as previously described (Zheng et al. (2016), supra). A cRNA mixture of 25 ng Asu-acr-16 and 5 ng Asu-ric-3 cRNA in 50 nL RNAse-free water was injected into de-folliculated Xenopus laevis oocytes (Ecocyte Bioscience, Austin, Tex., USA). The injected oocytes were incubated in an incubation solution (100 mM NaCl, 2 mM KCl, 1.8 mM CaCl2.2H2O, 1 mM MgCl2.6H20, 5 mM HEPES, 2.5 mM Na-pyruvate, 100 U/mL penicillin, and 100 μg/mL streptomycin, pH 7.5) at 19° C. for 4-8 days, after which 100 μM BAPTA-AM was added three hours before recording.
Two-electrode voltage clamp electrophysiology was used to determine agonist concentration-current-response plots to estimate the potencies (EC50s) of the agonists. The oocytes were kept in a recording solution (100 mM NaCl, 2.5 mM KCl, 1 mM CaCl2.2H2O, and 5 mM HEPES, pH 7.3) and clamped to −60 mV during recording.
Inward current signals in the oocytes were induced by the addition of chemicals that acted as agonists opening the nicotinic ion-channel receptors. […] An Axoclamp 2B amplifier (Molecular Devices, Sunnyvale, Calif.) was used to record the currents that were acquired with Clampex 9.2 software (Molecular Devices) and analyzed using GraphPad Prism 5.0 (Graphpad Software, Inc., La Jolla, Calif.).
Recording solution was then used to wash out the drug from the oocyte for 3 min prior to application of the next chemical perfusion.
Nicotine derivatives that elicited inward currents at 100 μM were classified as agonists. Increasing concentrations of each nicotine derivative were applied for 10 sec with 3-min wash intervals to determine the dose-response relationship of each agonist. […] Peak responses were recorded and normalized. […] The EC50 and Imax of each agonist were compared using the unpaired student's t-test. P<0.05 was used to evaluate the statistical difference.

Asu-ACR-16 [2] = target: T1, Asu-ACR-16; assay: Two-electrode voltage clamp inhibition of the ACh response of Asu-ACR-16 expressed in Xenopus laevis oocytes; assay type: cell-based
[3] = agonist dose-response, mean±S.E.M., N=5
[4] = agonist, currents normalized to 100 μM ACh, oocytes clamped to −60 mV, mean±S.E.M., N=5
[5] = inhibition of ACh response, N=5
[6] = inward currents at 100 μM classify as agonist

T1 sequence (F1KYJ9 1-504): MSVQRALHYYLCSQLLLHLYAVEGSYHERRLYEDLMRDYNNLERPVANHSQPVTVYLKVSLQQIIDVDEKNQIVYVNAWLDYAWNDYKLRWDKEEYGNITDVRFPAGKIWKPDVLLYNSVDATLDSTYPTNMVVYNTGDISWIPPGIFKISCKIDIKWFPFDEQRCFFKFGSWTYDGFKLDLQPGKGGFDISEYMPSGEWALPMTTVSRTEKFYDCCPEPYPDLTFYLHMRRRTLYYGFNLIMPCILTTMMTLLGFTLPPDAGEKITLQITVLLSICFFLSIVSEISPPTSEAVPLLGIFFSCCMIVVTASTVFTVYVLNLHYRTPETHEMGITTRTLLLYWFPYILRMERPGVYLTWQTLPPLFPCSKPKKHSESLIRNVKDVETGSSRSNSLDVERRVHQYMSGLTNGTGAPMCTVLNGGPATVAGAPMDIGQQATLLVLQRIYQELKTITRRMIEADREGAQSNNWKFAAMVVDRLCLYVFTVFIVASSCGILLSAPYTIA

Which results are given for `CN1CCCC1c1cccnc1.O=C(O)C(O)C(O)C(=O)O` (single isomer, unassigned; (-)) [(S)-nicotine, (−)-nicotine hydrogen tartrate salt]?
Hill slope (nH) (Asu-ACR-16 [1]): 3.39 ± 0.36; agonist activity (in words) (Asu-ACR-16 [1]): potent agonist

Which “Hill slope (nH)” value (Asu-ACR-16 [1]; [3]) does the source give for `Cc1cncc(C2CCCN2C)c1` (stereo not shown) [5-methyl-nicotine, 5-methylnicotine] here?
Its value is 2.09 ± 0.14.

What about the EC50 (Asu-ACR-16 [1]; [4]) of the same molecule?
The EC50 was 990 ± 170 nM.

And the Emax (Asu-ACR-16 [1])?
Its Emax is 76 ± 1.22%.

How did the IC50 (Asu-ACR-16 [2]) turn out when `NC(=O)c1ccc(N)nc1` [6-AN, 6-aminonicotinamide] was run?
Its IC50 is 2000 ± 410 nM.

What about the “inhibition of ACh response (in words)” value (Asu-ACR-16 [2]; 100 μM derivative co-applied with 100 μM ACh) of the same molecule?
Its value is “most potent inhibitor”.

And the “mode of antagonism (in words)” value (Asu-ACR-16 [2]; ACh dose-response in presence of 1 μM 6-AN, concentration- and voltage-dependent inhibition)?
The value was “non-competitive antagonist”.

And the Imax (Asu-ACR-16 [2]; [5])?
The Imax was 94.88±1.49%.

And the nH (Asu-ACR-16 [2]; [5])?
The nH was 1.02±0.05.

And the “Hill slope (nH)” value (Asu-ACR-16 [1]; [3])?
The value was 10.10 ± 0.15.

And the “agonist activity (in words)” value (Asu-ACR-16 [1]; [6])?
The value was “little agonist activity”.

And the Emax (Asu-ACR-16 [1])?
Its Emax is 6.29 ± 0.62%.

Which results are given for `Cc1ccc(C2CCCN2C)cn1` (stereo not shown) [6-methyl-nicotine, 6-methylnicotine]?
Hill slope (nH) (Asu-ACR-16 [1]; [3]): 3.25 ± 0.25; Emax (Asu-ACR-16 [1]): 69.8 ± 1.56%

How did the “agonist activity (in words)” value (Asu-ACR-16 [1]; [6]) turn out when `CN1CCC[C@H]1c1ccc[n+](C)c1.[I-]` [(S)-1-methyl-nicotinium, (S)-1-methylnicotinium iodide] was run?
The value was “did not act as agonists”.

What does the source list for `C[N+]1(C)CCC[C@H]1c1cccnc1.[I-]` [(S)-1′-methyl-nicotinium, (S)-1′-methylnicotinium iodide]?
Hill slope (nH) (Asu-ACR-16 [1]; [3]): 3.52 ± 0.26; maximum response (Imax) (Asu-ACR-16 [1]; mean±S.E.M., N=5): 93.38 ± 5.25%

Which results are given for `Brc1cncc([C@@H]2CCCCN2)c1` [(S)-5-bromo-anabasine, (S)-5-bromoanabasine]?
Hill slope (nH) (Asu-ACR-16 [1]; [3]): 4.19 ± 1.58; maximum response (Imax) (Asu-ACR-16 [1]; mean±S.E.M., N=5): 80.69 ± 2.87%

Which results are given for `CN1CCC[C@H]1c1cncc(Br)c1` [(S)-5-bromo-nicotine, (S)-5-bromonicotine]?
Hill slope (nH) (Asu-ACR-16 [1]; [3]): 2.46 ± 0.21; EC50 (Asu-ACR-16 [1]; [4]): 2040 ± 120 nM; Emax (Asu-ACR-16 [1]): 69.7 ± 3.28%

Which “Hill slope (nH)” value (Asu-ACR-16 [1]; [3]) does the source give for `C#Cc1cncc([C@@H]2CCCCN2)c1` [(S)-5-ethynyl-anabasine] here?
The value was 1.81 ± 0.24.

And the “maximum response (Imax)” value (Asu-ACR-16 [1]; mean±S.E.M., N=5)?
The value was 79.33 ± 3.75%.

And the “EC50 lower (more potent) than (S)-nicotine” value (Asu-ACR-16 [1]; ratio of EC50 values)?
Its value is 44 times.

`C#Cc1cncc([C@@H]2CCCN2C)c1` [(S)-SIB 1508Y, SIB 1508Y maleate] was tested. Which “Hill slope (nH)” value (Asu-ACR-16 [1]; [3]) did it give?
The value was 0.94 ± 0.04.

What about the EC50 (Asu-ACR-16 [1]; [4]) of the same molecule?
Its EC50 is 370 ± 100 nM.

What about the “maximum response (Imax)” value (Asu-ACR-16 [1]; mean±S.E.M., N=5) of the same molecule?
Its value is 100.1 ± 4.36%.

For `c1cncc([C@@H]2CCCCN2)c1` [(S)-anabasine], which “Hill slope (nH)” value (Asu-ACR-16 [1]; [3]) is on record?
The value was 2.26 ± 0.20.

And the “maximum response (Imax)” value (Asu-ACR-16 [1]; mean±S.E.M., N=5)?
The value was 84.82 ± 4.20%.

How did the “agonist activity (in words)” value (Asu-ACR-16 [1]; [6]) turn out when `CN1C(=O)CC[C@H]1c1cccnc1` [(S)-cotinine, (−)-cotinine] was run?
Its value is “did not act as agonists”.

`CN1CCC[C@H]1c1cccnc1` [(S)-nicotine, (−)-nicotine hydrogen tartrate salt] was tested. Which EC50 (Asu-ACR-16 [1]) did it give?
The EC50 was 6210 ± 560 nM.

What about the Emax (Asu-ACR-16 [1]) of the same molecule?
The Emax was 82.4 ± 2.52%.

`CN1CCC[C@H]1c1cncc(C=O)c1` [(S)-nicotine-5-carboxaldehyde] was tested. Which “Hill slope (nH)” value (Asu-ACR-16 [1]; [3]) did it give?
The value was 8.61 ± 4.04.

What about the EC50 (Asu-ACR-16 [1]; [4]) of the same molecule?
Its EC50 is 11500 ± 630 nM.

And the “maximum response (Imax)” value (Asu-ACR-16 [1]; mean±S.E.M., N=5)?
The value was 62.20 ± 6.80%.

For `CC(=O)OCC[N+](C)(C)C.[Cl-]` [ACh, acetylcholine chloride], which “Hill slope (nH)” value (Asu-ACR-16 [1]; [3]) is on record?
The value was 2.93 ± 0.13.

`CN1CCCCC1c1cccnc1` (stereo not shown) [N-methyl-anabasine, N-methyl anabasine] was tested. Which “agonist activity (in words)” value (Asu-ACR-16 [1]; [6]) did it give?
The value was “inactive; also recorded: did not act as agonists”.

`CCN1CCCC1c1cccnc1` (stereo not shown) [homonicotine] was tested. Which “Hill slope (nH)” value (Asu-ACR-16 [1]; [3]) did it give?
The value was 6.78 ± 2.50.

What about the “maximum response (Imax)” value (Asu-ACR-16 [1]; mean±S.E.M., N=5) of the same molecule?
Its value is 22.01 ± 1.39%.

`c1cncc([C@@H]2CCCN2)c1` [nornicotine, (+)-nornicotine] was tested. Which “Hill slope (nH)” value (Asu-ACR-16 [1]; [3]) did it give?
Its value is 3.25 ± 0.49.

And the Emax (Asu-ACR-16 [1])?
Its Emax is 62.6 ± 3.42%.
